Data taken from patent US4212797A, “Synthetic pentapeptide having opiate agonist activity” (Beckman Instruments, Inc., priority 1976, dated 1980).

Legend:
[1] = test system: opiate receptor (stereospecific naloxone binding); assay: Inhibition of stereospecific naloxone binding (Pert and Snyder technique); settings: for ID50, concentration required to inhibit 50% of stereospecific naloxone binding: sodium 100 mM
Description: B., and Snyder, S., Proceedings of the National Academy of Sciences, Vol. 70, pp. 2243-2247 (1973). The potency is measured as ID50, defined as the concentration required to inhibit 50% of stereospecific naloxone binding. The concentration of sodium was 100 mM. The effectiveness is inversely related to the ID50 value.

[2] = test system: opiate receptor sites; settings: Hughes et al, Nature 258, 577-579 (1975); cited from earlier work

| Structure (SMILES) | ID50, concentration required to inhibit 50% of stereospecific naloxone binding [1] | Opiate agonist potency, comparison in words [2] | Potency relative to the more potent sequence of enkephalin ([1]; from ID50 values of Table 1) |
| --- | --- | --- | --- |
| CSCC[C@H](NC(=O)[C@H](Cc1ccccc1)NC(=O)CNC(=O)CNC(=O)[C@@H](N)Cc1ccc(O)cc1)C(=O)O [Enkephalin sequence one, H-Tyr-Gly-Gly-Phe-Met-OH] | 0.4 | more potent than sequence two | – |
| CC(C)C[C@H](NC(=O)[C@H](Cc1ccccc1)NC(=O)CNC(=O)CNC(=O)[C@@H](N)Cc1ccc(O)cc1)C(=O)O [Enkephalin sequence two, H-Tyr-Gly-Gly-Phe-Leu-OH] | 1.4 | – | – |
| CSCC[C@H](NC(=O)[C@H](Cc1ccccc1)NC(=O)CNC(=O)CNC(=O)[C@@H](N)Cc1ccc(O)cc1)C(N)=O [Subject Pentapeptide, H-Tyr-Gly-Gly-Phe-Met-NH2] | 0.2 | – | twice as potent as the more potent sequence of enkephalin |
